# Measurements reported in patent US9801371B2, “Self-assembling polymer particle release system” (priority 2010, dated 2017).
# Where two headings read alike, the source gives them in different places.
# What was measured:
# [1] = Soil column test: topsoil column washed with ten 10-ml aliquots of water; assay type: physicochemical
# Procedure: The soil column was prepared by cutting off the tip of a 15 ml VWR brand CAT, No. 20171-036 polypropylene centrifuge tube leaving approximately a ⅛-inch opening, which was filled with cotton to prevent the soil from pouring out the bottom. The cotton block was 0.5-inch thick, which held unpacked 3 inches of Nature's topsoil from the Michigan Peat Co., (Oakland Nursery). The topsoil was sieved ten times through a #7 metal screen sieve to remove large debris before filling the tubes.
# A 50-μl sample of the mixture was applied to the filter paper and dried while a 200-μl sample was applied to the top of the soil columns and dried before washing with ten 10-ml aliquots of water.
# [2] = Filter paper test: ten 10-ml water washings, UV analysis of AI washed through; assay type: physicochemical
# Source text: All of the polymers in this set of experiments were combined with the AI at a 70% AI by weight to 30% polymer by weight concentrations. […] The filter paper samples were applied to a slightly wet Buchner funnel to set the paper evenly and then ten 10-ml aliquots of de-ionized (DI) water were suctioned through the filter paper. Ultraviolet light (UV) analysis for each of the 10-ml fractions was used to determine the absorption of the AI (264 nm) washed through the filter paper and recorded as absorption versus each individual 10-ml wash.
# The control for these systems was evaluated by placing methylene chloride solutions of the AI alone or the polymer alone onto the filter paper, drying overnight, and washing with ten 10-ml aliquots of DI water.
# The AI was dry ground (mortar and pestle) with urea-formaldehyde flower foam as the cage material [commercial product (Foliage Fresh)] where the ratio of AI to flower foam was 70%/30% by weight. This mixture then was tumbled-coated with an organic solvent solution of a hydrophobic polymer (paraffin wax/hexane; polystyrene/toluene; silicone oil/toluene) in a round bottom flask. […] Small amounts (0.07 g) of the powder were placed on the filter paper and subsequently washed with ten 10-ml aliquots of DI water and analyzed in a similar manner as previously described.
# Liquid samples of the AI-polymer combinations and AI control samples were applied to filter paper (Whatman #2) and dried for 24 hours at room temperature. The filter paper containing the AI-polymer combination or the AI control samples were placed in a Buchner funnel under water aspiration vacuum conditions, while ten 10-ml aliquots of water were applied to the top of the filter paper containing the AI-polymer or AI control material, which was then sucked through the filter paper and collected in the receiving flask that holds the funnel-vacuum attachment.
# After each 10-ml aliquot of water was suctioned through the filter paper containing the sample, the suctioned solution then was removed and analyzed with a UV spectrometer for any AI that went through the water washing process. The ten 10-ml sequential washings were a simulation of how an AI applied to soil would remain on the soil and migrate through the soil under a rain environmental exposure condition.
# Dry 100% solid samples were placed on the filter paper directly and subsequently washed with ten 10-ml aliquots in a similar manner as the liquid samples that were dried after placement on the filter paper.
# Various concentrations of the AI's were dissolved in water or water and a co-solvent and analyzed at 254 nm or other UV/visible regions of the spectrum in order to establish a standard calibration curve of absorbance versus AI concentration.
# [3] = cited from earlier work
# [4] = cited from earlier work; remark: listed apart in the source
# [5] = cited from earlier work; remark: listed apart in the source
# sugar beet leaves = conditions: amorphous wax surface; cited from earlier work
# kohlrabi leaves = conditions: fine crystalline wax surface; cited from earlier work
# [6] = Table 26, USDA Pesticide Properties Database
structure (smiles),measurement,setting,value
"CC(C)N.O=C(O)COc1ccc(Cl)cc1Cl [2,4-D Amine Salt]",% released,[1]; 10-ml water washing 1,32%
same,% released,[1]; 10-ml water washing 2,26%
same,% released,[1]; 10-ml water washing 3,20%
same,% released,[1]; 10-ml water washing 4,13%
same,% released,[1]; 10-ml water washing 5,9%
same,% released,[1]; 10-ml water washing 6,0%
same,% released,[1]; 10-ml water washing 7,0%
same,% released,[1]; 10-ml water washing 8,0%
same,% released,[1]; 10-ml water washing 9,0%
same,% released,[1]; 10-ml water washing 10,0%
same,"R (rating factor, number of washings to deplete the AI)",[1]; ten 10-ml water washings,5
same,number of 10-ml water washes to pass through / be depleted from the filter paper,[2],1-2 washes
same,controlled-release properties (in words),"[2]; filter paper, 10-ml aliquots of water",no control release capabilities
same,% released,"[2]; filter paper, 10-ml water washing 1",94%
same,% released,"[2]; filter paper, 10-ml water washing 1, listed as 2,4-D Salt",86%
same,% released,"[2]; filter paper, 10-ml water washing 2",6%
same,% released,"[2]; filter paper, 10-ml water washing 2, listed as 2,4-D Salt",14%
same,% released,"[2]; filter paper, 10-ml water washing 3",0%
same,% released,"[2]; filter paper, 10-ml water washing 4",0%
same,% released,"[2]; filter paper, 10-ml water washing 5",0%
same,% released,"[2]; filter paper, 10-ml water washing 6",0%
same,% released,"[2]; filter paper, 10-ml water washing 7",0%
same,% released,"[2]; filter paper, 10-ml water washing 8",0%
same,% released,"[2]; filter paper, 10-ml water washing 9",0%
same,% released,"[2]; filter paper, 10-ml water washing 10, * = not all released after 10 washings",0%
same,"R (rating factor, number of washings to deplete the AI)","[2]; filter paper, ten 10-ml water washings",2
CN(C)C(=O)Nc1ccccc1 [Fenuron],Water Solubility,[3],3850 µg/mL
same,Log P,[4],0.98
same,KOC,[5]; Tables 21-25,42
CON(C)C(=O)Nc1ccc(Cl)c(Cl)c1 [Linuron],Water Solubility,[3],63.8 µg/mL
same,KOC,[5]; [6],400 mg/g
same,KOC,[5]; Tables 21-25,620
c1ccc2[nH]c(-c3cscn3)nc2c1 [Thiabendazole],Water Solubility,[3],30 µg/mL
same,Log P,[4],2.39
same,KOC,[5]; Tables 21-25,2500
O=C(O)CNCP(=O)(O)O [Glyphosate],capability to penetrate leaf surfaces,sugar beet leaves,very little capability to penetrate leaf surfaces
same,capability to penetrate leaf surfaces,kohlrabi leaves,very little capability to penetrate leaf surfaces
COc1c(Cl)ccc(Cl)c1C(=O)O [Dicamba],Water Solubility,[3],250000 µg/mL
same,Log P,[4],−1.88
same,KOC,[5]; [6],2 mg/g
same,KOC,[5]; Tables 21-25,12
CCCCN(C)C(=O)Nc1ccc(Cl)c(Cl)c1 [Neburon],Log P,[4],3.8
same,KOC,[5]; Tables 21-25,2500
